From patent publication US7273863B1, “Benzophenones as inhibitors of reverse transcriptase” (SmithKline Beecham Corporation, priority 1999, dated 2007)

Tests used:
Assay type in all cases: cell-based
[1] = system: HIV-1 (strain IIIB); test: MT4 cell assay, antiviral HIV activity (propidium iodide); conditions: Human immunodeficiency virus 1, IIIB; Virus Type HIV-1; Assay MT4; read-out: IC50 (nM) Range
Protocol: Antiviral HIV activity and compound-induced cytotoxicity were measured in parallel by means of a propidium iodide based procedure in the human T-cell lymphotropic virus transformed cell line MT4. Aliquots of the test compounds were serially diluted in medium (RPMI 1640, 10% fetal calf serum (FCS), and gentamycin) in 96-well plates (Costar 3598) using a Cetus Pro/Pette. Exponentially growing MT4 cells were harvested and centrifuged at 1000 rpm for 10 min in a Jouan centrifuge (model CR 4 12). Cell pellets were resuspended in fresh medium (RPMI 1640, 20% FCS, 20% IL-2, and gentamycin) to a density of 5×10^5 cells/ml. Cell aliquots were infected by the addition of HIV-1 (strain IIIB) diluted to give a viral multiplicity of infection of 100×TCID50. A similar cell aliquot was diluted with medium to provide a mock-infected control. Cell infection was allowed to proceed for 1 hr at 37° C. in a tissue culture incubator with humidified 5% CO2 atmosphere. After the 1 hr incubation the virus/cell suspensions were diluted 6-fold with fresh medium, and 125 μl of the cell suspension was added to each well of the plate containing pre-diluted compound. Plates were then placed in a tissue culture incubator with humidified 5% CO2 for 5 days. At the end of the incubation period, 27 μl of 5% Nonidet-40 was added to each well of the incubation plate. After thorough mixing with a Costar multitip pipetter, 60 μl of the mixture was transferred to filter-bottomed 96-well plates. The plates were analyzed in an automated assay instrument (Screen Machine, Idexx Laboratories). The control and standard used was 3′-azido-3′-deoxythymidine tested over a concentration range of 0.01 to 1 μM in every assay. […] The assay-makes use of a propidium iodide dye to estimate the DNA content of each well.
The antiviral effect of a test compound is reported as an IC50, i.e. the inhibitory concentration that would produce a 50% decrease in the HIV-induced cytopathic effect. This effect is measured by the amount of test compound required to restore 50% of the cell growth of HIV-infected MT4 cells, compared to uninfected MT4 cell controls. IC50 was calculated by RoboSage, Automated Curve Fitting Program, version 5.00, 10 Jul. 1995.
For each assay plate, the results (relative fluorescence units, rfU) of wells containing uninfected cells or infected cells with no compound were averaged, respectively. For measurements of compound-induced cytotoxicty, results from wells containing various compound concentrations and uninfected cells were compared to the average of uninfected cells without compound treatment. Percent of cells remaining is determined by the following formula: Percent of cells remaining=(compound−treated uninfected cells, rfU/untreated uninfected cells)×100.
A level of percent of cells remaining of 79% or less indicates a significant level of direct compound-induced cytotoxicity for the compound at that concentration. When this condition occurs the results from the compound-treated infected wells at this concentration are not included in the calculation of IC50.
For measurements of compound antiviral activity, results from wells containing various compound concentrations and infected cells are compared to the average of uninfected and infected cells without compound treatment. Percent inhibition of virus is determined by the following formula: Percent inhibition of virus=(1−((ave. untreated uninfected cells−treated infected cells)/(ave. untreated uninfected cells−ave. untreated infected cells)))×100

[2] = system: isogenic HIV-1 RT mutant virus Y188C; test: HeLa cell assay (HIV-LTR β-galactosidase reporter); conditions: Human immunodeficiency virus 1, HeLa, read-out: IC50 (nM) Range
In short: (§1)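 HeLa-CD4-LTR-β-gal cells, seeded overnight, were infected with isogenic recombinant HXB2 RT-mutant virus (50 to 70 total RLUs per well, DEAE-dextran) for 1.5 to 2 hours. Five-fold compound titrations (2 μM to 1 pM final, 0.1% DMSO) followed, with 72 h at 37° C. IC50 is chemiluminescent β-gal signal inhibition versus untreated controls.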

[3] = system: isogenic HIV-1 RT mutant virus V106A; test: HeLa cell assay (HIV-LTR β-galactosidase reporter); conditions: Human immunodeficiency virus 1, HeLa, read-out: IC50 (nM) Range
In short: as §1

**Q.** With Cc1cc(C#N)cc(C(=O)c2cc(Cl)ccc2OCC(=O)Nc2ccc(S(N)(=O)=O)nc2C)c1 [Compound 503] as the compound, how does the IC50 [1] read?
**A.** The IC50 was under 10 nM.

**Q.** Which IC50 [1] does the source give for Cc1cc(S(N)(=O)=O)ccc1NC(=O)COc1ccc(Cl)cc1C(=O)c1cccc(C#N)n1 [Compound 637] here?
**A.** Its IC50 is under 10 nM.

**Q.** How did the IC50 [1] turn out when Cc1cc(S(N)(=O)=O)ccc1NC(=O)COc1ccc(Cl)cc1C(=O)c1cc(Cl)cc(C#N)c1 [Compound 475] was run?
**A.** Its IC50 is under 10 nM.

**Q.** Cc1cc(S(N)(=O)=O)ccc1NC(=O)COc1ccc(Cl)cc1C(=O)c1cccc(C#N)c1 [Compound 448] was tested. Which IC50 [1] did it give?
**A.** The IC50 was under 10 nM.

**Q.** And the IC50 [2]?
**A.** Its IC50 is under 10 nM.

**Q.** What about the IC50 [3] of the same compound?
**A.** Its IC50 is 11 to 100 nM.

**Q.** For Cc1cc(S(N)(=O)=O)ccc1NC(=O)COc1ccc(Cl)cc1C(=O)c1cc(F)cc(C(F)(F)F)c1 [Compound 78], which IC50 [1] is on record?
**A.** Its IC50 is under 10 nM.

**Q.** What about the IC50 [2] of the same compound?
**A.** The IC50 was under 10 nM.

**Q.** And the IC50 [3]?
**A.** The IC50 was 11 to 100 nM.

**Q.** How did the IC50 [1] turn out when Cc1cc(C#N)cc(C(=O)c2cc(Cl)ccc2OCC(=O)Nc2ccc(S(N)(=O)=O)cc2C)c1 [Compound 564] was run?
**A.** The IC50 was under 10 nM.

**Q.** How did the IC50 [1] turn out when Cc1cc(C)cc(C(=O)c2cc(Cl)ccc2OCC(=O)Nc2ccc(S(N)(=O)=O)cc2C)c1 [Compound 478] was run?
**A.** Its IC50 is under 10 nM.

**Q.** What does the source list for Cc1cc2cn[nH]c2cc1NC(=O)COc1ccc(Cl)cc1C(=O)c1cccc(C#N)c1 [Compound 453]?
**A.** IC50 [1]: < 10 nM; IC50 [2]: < 10 nM; IC50 [3]: 101 to 1000 nM

**Q.** What does the source list for Cc1cc2nc[nH]c2cc1NC(=O)COc1ccc(Cl)cc1C(=O)c1cc(F)cc(C(F)(F)F)c1 [Compound 239]?
**A.** IC50 [1]: < 10 nM; IC50 [2]: < 10 nM; IC50 [3]: 11 to 100 nM

**Q.** Which IC50 [1] does the source give for Cc1cc(S(N)(=O)=O)ccc1NC(=O)COc1ccc(Cl)cc1C(=O)c1cc(F)cc(C#N)c1 [Compound 491] here?
**A.** Its IC50 is under 10 nM.

**Q.** What does the source list for Cc1cc(OCCCS(N)(=O)=O)ccc1NC(=O)COc1ccc(Cl)cc1C(=O)c1cc(F)cc(C(F)(F)F)c1 [Compound 257]?
**A.** IC50 [1]: < 10 nM; IC50 [2]: < 10 nM; IC50 [3]: 11 to 100 nM

**Q.** Cc1cc(C#N)cc(C(=O)c2cc(Cl)ccc2OCC(=O)Nc2cnc(S(N)(=O)=O)cc2C)c1 [Compound 587] was tested. Which IC50 [1] did it give?
**A.** The IC50 was under 10 nM.

**Q.** How did the IC50 [1] turn out when Cc1cc(S(N)(=O)=O)ccc1NC(=O)COc1ccc(Cl)cc1C(=O)c1cc(F)cc(F)c1 [Compound 62] was run?
**A.** Its IC50 is under 10 nM.

**Q.** What about the IC50 [2] of the same compound?
**A.** The IC50 was under 10 nM.

**Q.** And the IC50 [3]?
**A.** The IC50 was 11 to 100 nM.

**Q.** Cc1cc(C#N)cc(C(=O)c2cc(Cl)ccc2OCC(=O)Nc2ccc(OCCCN3CC=CC3)cc2C)c1 [Compound 593] was tested. Which IC50 [1] did it give?
**A.** The IC50 was under 10 nM.

**Q.** With CCc1cc(C#N)cc(C(=O)c2cc(Cl)ccc2OCC(=O)Nc2ccc(S(N)(=O)=O)cc2C)c1 [Compound 498] as the compound, how does the IC50 [1] read?
**A.** Its IC50 is under 10 nM.
